Experimental data: ChEMBL document CHEMBL1201862, “PubChem BioAssay data set” (2004)
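Following 48 hours of exposure in 96-well plates, responses at five concentrations were used to interpolate endpoints linearly. Here, GI50 denotes the concentration required for 50% inhibition of growth.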 Activity calls are given as the source filed them. No stated cut-off is given here; in the data, active = GI50 up to about 1.1 µM and inactive = higher. Peptide text beside a SMILES is read from it. * marks the point of attachment. Boc = CC(C)(C)OC(=O)*

Tests used:
Test in all cases: NCI anticancer screen, dose series, 48 h
SN12C = tested on: SN12C
MOLT-4 = tested on: MOLT-4
UACC-257 = tested on: UACC-257
HL-60 = tested on: HL-60
SK-MEL-2 = tested on: SK-MEL-2
PC-3 = tested on: PC-3
COLO 205 = tested on: COLO 205
NCI-H460 = tested on: NCI-H460
Malme-3M = tested on: Malme-3M
NCI-H23 = tested on: NCI-H23
MCF7 = tested on: MCF7
786-0 = tested on: 786-0
MDA-N = tested on: MDA-N
LOX IMVI = tested on: LOX IMVI
MDA-MB-435 = tested on: MDA-MB-435
M14 = tested on: M14
SF-539 = tested on: SF-539
TK-10 = tested on: TK-10
IGROV-1 = tested on: IGROV-1
SNB-19 = tested on: SNB-19

Measured: GI50

C[N+](C)(CCCn1ccnc1[N+](=O)[O-])CCCn1ccnc1[N+](=O)[O-]
inactive: SN12C > 100 µM | MOLT-4 > 100 µM | UACC-257 > 100 µM | HL-60 > 100 µM | SK-MEL-2 > 100 µM | PC-3 > 100 µM | COLO 205 > 100 µM | NCI-H460 > 100 µM | Malme-3M > 100 µM | NCI-H23 > 100 µM | MCF7 > 100 µM | 786-0 > 100 µM | MDA-N > 100 µM | LOX IMVI > 100 µM | MDA-MB-435 > 100 µM | M14 > 100 µM | SF-539 > 100 µM | TK-10 > 100 µM | IGROV-1 > 100 µM

Cc1ccc(S(=O)(=O)NNC2(NS(=O)(=O)c3ccc(Cl)cc3)C(Cl)=C(Cl)C(=O)c3ccccc32)cc1 (centres undefined)
inactive: SN12C 17 µM | MOLT-4 25.6 µM | UACC-257 17.6 µM | HL-60 14.4 µM | SK-MEL-2 20 µM | PC-3 16.7 µM | COLO 205 18.1 µM | NCI-H460 17.9 µM | SNB-19 16.3 µM | Malme-3M 17.3 µM | NCI-H23 15 µM | MCF7 16.4 µM | 786-0 14.1 µM | MDA-N 17.4 µM | LOX IMVI 23.5 µM | MDA-MB-435 18.8 µM | M14 19 µM | SF-539 21.2 µM | TK-10 16.8 µM | IGROV-1 14.7 µM

O=C1CCC2C(O)c3cc4c(cc3C(c3ccc5c(c3)OCO5)N12)OCO4 (centres undefined)
inactive: SN12C 76 µM | MOLT-4 > 100 µM | UACC-257 > 100 µM | HL-60 > 100 µM | SK-MEL-2 > 100 µM | PC-3 > 100 µM | COLO 205 > 100 µM | NCI-H460 > 100 µM | SNB-19 29.2 µM | Malme-3M > 100 µM | NCI-H23 > 100 µM | MCF7 > 100 µM | 786-0 82 µM | MDA-N > 100 µM | LOX IMVI > 100 µM | MDA-MB-435 > 100 µM | M14 > 100 µM | SF-539 80 µM | TK-10 > 100 µM | IGROV-1 > 100 µM

O=c1[nH]cnc2c1ncn2[C@@H]1C[C@@H]1CO
inactive: SN12C > 100 µM | MOLT-4 > 100 µM | UACC-257 > 100 µM | HL-60 > 100 µM | SK-MEL-2 > 100 µM | PC-3 > 100 µM | COLO 205 > 100 µM | NCI-H460 > 100 µM | SNB-19 > 100 µM | Malme-3M > 100 µM | NCI-H23 > 100 µM | MCF7 > 100 µM | 786-0 > 100 µM | MDA-N > 100 µM | LOX IMVI > 100 µM | MDA-MB-435 > 100 µM | M14 > 100 µM | SF-539 > 100 µM | TK-10 > 100 µM | IGROV-1 > 100 µM

O=C1O/C(=C\c2ccc(O)cc2)C(c2ccc(O)c(Cl)c2)=C1Cl
inactive: SN12C 88.9 µM | MOLT-4 49.7 µM | UACC-257 49.5 µM | HL-60 33 µM | SK-MEL-2 31.2 µM | PC-3 > 100 µM | COLO 205 96.6 µM | NCI-H460 30.3 µM | SNB-19 76.9 µM | Malme-3M 24.5 µM | NCI-H23 33.7 µM | MCF7 16.6 µM | 786-0 50.2 µM | MDA-N 23.5 µM | LOX IMVI 50.6 µM | MDA-MB-435 27.4 µM | M14 35.7 µM | SF-539 91.8 µM | TK-10 54.8 µM | IGROV-1 40.1 µM

O=C1OC(C2Cc3cc4c(cc3C2=O)CCC4)c2ccccc21 (centres undefined)
inactive: SN12C 63 µM | MOLT-4 23.7 µM | UACC-257 > 100 µM | HL-60 42.9 µM | SK-MEL-2 65 µM | PC-3 30.3 µM | COLO 205 33.9 µM | NCI-H460 40 µM | SNB-19 32.1 µM | Malme-3M > 100 µM | NCI-H23 47.1 µM | MCF7 41.5 µM | 786-0 80 µM | MDA-N 75.3 µM | LOX IMVI 37 µM | MDA-MB-435 40.3 µM | M14 > 100 µM | SF-539 27.9 µM | TK-10 > 100 µM | IGROV-1 45.5 µM

COCN1CCN=c2c1c1c3c(c4ccccc4n23)CCC1
inactive: SN12C > 100 µM | MOLT-4 > 100 µM | UACC-257 > 100 µM | HL-60 > 100 µM | SK-MEL-2 > 100 µM | PC-3 > 100 µM | COLO 205 > 100 µM | NCI-H460 > 100 µM | SNB-19 > 100 µM | Malme-3M > 100 µM | NCI-H23 > 100 µM | MCF7 > 100 µM | 786-0 > 100 µM | MDA-N > 100 µM | LOX IMVI > 100 µM | MDA-MB-435 > 100 µM | M14 > 100 µM | SF-539 > 100 µM | TK-10 > 100 µM | IGROV-1 > 100 µM

CC(C)C[C@H](NC(=O)CCc1ccccc1)B(O)O
inactive: SN12C 16.8 µM | MOLT-4 3.04 µM | UACC-257 12.5 µM | HL-60 2.15 µM | SK-MEL-2 12.7 µM | PC-3 37.2 µM | COLO 205 12.7 µM | NCI-H460 19 µM | SNB-19 15.4 µM | Malme-3M 11.7 µM | NCI-H23 16.5 µM | MCF7 6.03 µM | 786-0 12.3 µM | MDA-N 2.49 µM | LOX IMVI 4.63 µM | MDA-MB-435 2.67 µM | M14 12.1 µM | SF-539 4.54 µM | TK-10 8.97 µM | IGROV-1 23.2 µM

Cc1cccc2c1CC(C1OC(=O)c3c(C)cccc31)C2=O (centres undefined)
inactive: SN12C > 100 µM | MOLT-4 > 100 µM | UACC-257 > 100 µM | HL-60 > 100 µM | SK-MEL-2 > 100 µM | PC-3 > 100 µM | COLO 205 > 100 µM | NCI-H460 > 100 µM | SNB-19 > 100 µM | Malme-3M > 100 µM | NCI-H23 > 100 µM | MCF7 > 100 µM | 786-0 > 100 µM | MDA-N > 100 µM | LOX IMVI 70.6 µM | MDA-MB-435 > 100 µM | M14 > 100 µM | SF-539 > 100 µM | TK-10 > 100 µM | IGROV-1 > 100 µM

COC(=O)C(Cc1ccccc1)NC(=O)C(CS)NC(=O)OC(C)(C)C (stereo not drawn) (Boc-Cys-Phe-OMe; configuration not given here)
inactive: SN12C > 100 µM | MOLT-4 8.55 µM | UACC-257 > 100 µM | HL-60 27.7 µM | SK-MEL-2 > 100 µM | PC-3 > 100 µM | COLO 205 > 100 µM | NCI-H460 > 100 µM | SNB-19 > 100 µM | Malme-3M > 100 µM | NCI-H23 > 100 µM | MCF7 73.5 µM | 786-0 > 100 µM | MDA-N > 100 µM | LOX IMVI 69.2 µM | MDA-MB-435 > 100 µM | M14 > 100 µM | SF-539 > 100 µM | TK-10 > 100 µM | IGROV-1 > 100 µM
